Assay results reported in patent US20090105212A1, “NOVEL ADENINE COMPOUND” (priority 2005, published 2009).

biological target: T1, Human TLR7 (Homo sapiens, UniProt Q9NYK1); assay: Human TLR7 reporter assay (NF-kB-SEAP, HEK293 cells); type: cell-based; conditions: hTLR7/seap-293 cells (HEK293, NF-kB-SEAP reporter), 20 hours incubation, 1 nM-10 μM, absorbance 405 nm; read-out: human TLR7 binding activity (EC50)
T1 construct: expressed in transfected cells; host or cells: HEK293 (hTLR7/seap-293)
T1 sequence (Q9NYK1 27-1049): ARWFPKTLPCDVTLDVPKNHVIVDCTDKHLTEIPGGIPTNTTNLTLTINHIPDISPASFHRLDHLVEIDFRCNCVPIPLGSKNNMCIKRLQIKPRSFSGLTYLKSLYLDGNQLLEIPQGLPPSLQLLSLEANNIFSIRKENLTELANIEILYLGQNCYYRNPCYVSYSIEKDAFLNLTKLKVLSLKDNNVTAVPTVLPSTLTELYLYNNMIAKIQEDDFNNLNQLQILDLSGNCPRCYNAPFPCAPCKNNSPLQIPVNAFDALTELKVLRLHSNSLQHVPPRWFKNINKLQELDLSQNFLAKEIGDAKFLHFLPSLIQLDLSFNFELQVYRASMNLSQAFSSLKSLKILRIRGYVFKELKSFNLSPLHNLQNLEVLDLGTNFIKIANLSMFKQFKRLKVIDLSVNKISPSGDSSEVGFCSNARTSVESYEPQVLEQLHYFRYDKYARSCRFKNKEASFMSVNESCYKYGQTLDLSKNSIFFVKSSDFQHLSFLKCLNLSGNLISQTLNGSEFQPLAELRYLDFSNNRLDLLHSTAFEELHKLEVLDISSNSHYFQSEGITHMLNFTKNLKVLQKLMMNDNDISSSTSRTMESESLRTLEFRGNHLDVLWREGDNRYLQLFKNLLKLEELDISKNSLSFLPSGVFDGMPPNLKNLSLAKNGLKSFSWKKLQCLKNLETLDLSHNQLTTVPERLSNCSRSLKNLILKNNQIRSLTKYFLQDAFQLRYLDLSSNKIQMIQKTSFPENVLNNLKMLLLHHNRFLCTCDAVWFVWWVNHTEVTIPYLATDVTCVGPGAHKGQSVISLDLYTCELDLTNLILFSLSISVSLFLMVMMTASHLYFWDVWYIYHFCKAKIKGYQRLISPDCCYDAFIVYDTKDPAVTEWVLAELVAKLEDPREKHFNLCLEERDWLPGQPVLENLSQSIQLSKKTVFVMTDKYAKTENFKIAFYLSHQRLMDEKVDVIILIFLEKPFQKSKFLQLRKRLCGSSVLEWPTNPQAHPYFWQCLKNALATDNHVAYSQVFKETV
Description: Human TLR7 Reporter Assay
Human TLR7 or rat TLR7 plasmid and reporter plasmid (NF-kB-SEAP) stably-induced HEK293 cells were suspended in DMEM media (10% […], 1% NEAA, 10 ug/mL blastocidin S HCl, 100 ug/mL Zeocin), and the suspension was seeded in 90 μl/well on 96 well plate (hTLR7/seap-293:20000 cells/well, rTLR7/seap-293:25000 cells/well).
To the cells seeded on 96 well plate was added in 10 μl/well a test compound wherein DMSO stock solution (2 μl) was hundredfold diluted with medium (200 μl) (final concentration; 1 nM-10 μM, common ratio 3). The mixture was stirred tapping in the side of the plate, and then incubated for 20 hours in CO2 incubator. To the cells stimulated by a test compound was added a substrate for reporter assay (substrate for SEAP, pNPP) by 50 μl/well. 10 minutes after the addition of substrate, a quenching solution (4N NaOH) was added by 50 μl/well, and the enzymatic reaction was quenched. Top seal A was attached on the plate, and absorbance was measured by microplate reader (405 nm).

Row | Compound | EC50 [nM]
1 | CCCCOc1nc(N)c2[nH]c(=O)n(Cc3ccc(OCCCCN4CCC(C(=O)OC)CC4)cc3)c2n1 [Example 1, 2-Butoxy-7,8-dihydro-9-[4-{4-[4-(methoxycarbonyl)-piperidin-1-yl]butoxy}benzyl]-8-oxoadenine] | 5.7
2 | CCCCOc1nc(N)c2[nH]c(=O)n(Cc3ccc(OCCCCN4CCC(C(=O)OCCCCN(C)C)CC4)cc3)c2n1 [Example 3, 2-butoxy-7,8-dihydro-9-(4-[4-{4-[4-(N,N-dimethylamino)butoxycarbonyl]piperidin-1-yl}butoxy]benzyl)-8-oxoadenine] | 7.8
3 | CCCCOc1nc(N)c2[nH]c(=O)n(Cc3ccc(OCCCN(C)CC(=O)OC)cc3)c2n1 [Example 4, 2-butoxy-7,8-dihydro-9-[4-{3-[(N-methyl-N-methoxycarbonylmethyl)amino]propoxy}benzyl]-8-oxoadenine] | 7.8
4 | CCCCOc1nc(N)c2[nH]c(=O)n(Cc3ccc(OCC4CCN(CC(=O)OC)CC4)cc3)c2n1 [Example 5, 2-butoxy-7,8-dihydro-9-{4-[1-(methoxycarbonylmethyl)piperidin-4-ylmethyloxy]benzyl}-8-oxoadenine] | 3.6
5 | CCCCOc1nc(N)c2[nH]c(=O)n(Cc3ccc(OCC4CCN(CC(=O)OCCCCN(C)C)CC4)cc3)c2n1 [Example 7, 2-Butoxy-7,8-dihydro-9-[4-{1-[4-(N,N-dimethylamino)-butoxycarbonylmethyl]piperidin-4-ylmethyloxy}benzyl]-8-oxoadenine] | 5.1
6 | CCCCOc1nc(N)c2[nH]c(=O)n(Cc3ccc(CN(C)CC(=O)OC)cc3)c2n1 [Example 9, 2-Butoxy-7,8-dihydro-9-[4-(N-methoxycarbonylmethyl-N-methylaminomethyl)benzyl]-8-oxoadenine] | 8.8
7 | COCCOc1nc(N)c2[nH]c(=O)n(Cc3ccc(CN(C)CC(=O)OC)cc3)c2n1 [Example 12, 7,8-Dihydro-9-[4-(N-methoxycarbonylmethyl-N-methylaminomethyl)benzyl]-2-(2-methoxyethoxy)-8-oxoadenine] | 252
8 | CCCCOc1nc(N)c2[nH]c(=O)n(Cc3ccc(CN(C)CC(=O)OC)cc3OC)c2n1 [Example 16, 2-Butoxy-7,8-dihydro-9-[2-methoxy-4-(N-methoxycarbonylmethyl-N-methylaminomethyl)benzyl]-8-oxoadenine] | 15.6
9 | CCCCOc1nc(N)c2[nH]c(=O)n(Cc3ccc(CCN4CCC(C(=O)OC)CC4)cc3)c2n1 [Example 18, 2-Butoxy-7,8-dihydro-9-{4-[2-(4-methoxycarbonyl-piperidin-1-yl)ethyl]benzyl}-8-oxoadenine] | 2.2
10 | CCCCOc1nc(N)c2[nH]c(=O)n(Cc3ccc(CCN(C)CC(=O)OC)cc3)c2n1 [Example 20, 2-Butoxy-7,8-dihydro-9-{4-[2-(N-methoxycarbonylmethyl-N-methylamino)ethyl]benzyl}-8-oxoadenine] | 18.5
11 | CCCCOc1nc(N)c2[nH]c(=O)n(Cc3ccc(CCCN(C)CC(=O)OC)cc3)c2n1 [Example 21, 2-Butoxy-7,8-dihydro-9-{4-[3-(N-methoxycarbonylmethyl-N-methylamino)propyl]benzyl}-8-oxoadenine] | 6.8
12 | CCCCOc1nc(N)c2[nH]c(=O)n(Cc3ccc(CN(C)CC(=O)OCCCCN(C)C)cc3OC)c2n1 [Example 23, 2-Butoxy-7,8-dihydro-9-{4-[N-(4-dimethylaminobutoxy-carbonylmethyl)-N-methylaminomethyl]-2-methoxybenzyl}-8-oxoadenine] | 15.7
13 | CCCCOc1nc(N)c2[nH]c(=O)n(Cc3ccc(OCCCCN4CCC(C(=O)OC)CC4)nc3)c2n1 [Example 24, 2-butoxy-7,8-dihydro-9-{6-[4-(4-methoxylcarbonylpiperidin-1-yl)butoxy]pyridin-3-ylmethyl}-8-oxoadenine] | < 1
14 | CCCCOc1nc(N)c2[nH]c(=O)n(Cc3ccc(OCCCCN(C)CC(=O)OC)nc3)c2n1 [Example 26] | 2.8
15 | CCCCOc1nc(N)c2[nH]c(=O)n(Cc3ccc(OCCCCN(C)CC(=O)OCCCCN(C)C)nc3)c2n1 [Example 28, 2-Butoxy-7,8-dihydro-9-[6-(4-{N′-methyl-N′-[4-(N,N-dimethylamino)butoxycarbonylmethyl]}aminobutoxy)pyridin-3-ylmethyl]-8-oxoadenine] | 2
